The record followed here is US20100227853A1, “INHIBITORS OF CYCLIC AMP PHOSPHODIESTERASES” (Trustees of Boston College, priority 2008, published 2010).

For assay [1], the system named is PDE4A, PDE4B, PDE4D, PDE7A, PDE7B, PDE8A, PDE3A. In words: Summary of PDE inhibitor profile. More on the design: key: (1): Strong PDE7A inhibitor, weak to moderate PDE4A, 4B inhibitor; (2): Strong PDE7A and PDE4s (including PDE4D) inhibitor; (3): Strong PDE7A inhibitor. The note with it: overall classification, Table 18 footnotes.
A further assay deals with T1, PDE4D2-CAT (Homo sapiens, UniProt Q08499).
T1 construct: 86-413; made in house; host or cells: E. coli
T1 sequence (Q08499 388-715): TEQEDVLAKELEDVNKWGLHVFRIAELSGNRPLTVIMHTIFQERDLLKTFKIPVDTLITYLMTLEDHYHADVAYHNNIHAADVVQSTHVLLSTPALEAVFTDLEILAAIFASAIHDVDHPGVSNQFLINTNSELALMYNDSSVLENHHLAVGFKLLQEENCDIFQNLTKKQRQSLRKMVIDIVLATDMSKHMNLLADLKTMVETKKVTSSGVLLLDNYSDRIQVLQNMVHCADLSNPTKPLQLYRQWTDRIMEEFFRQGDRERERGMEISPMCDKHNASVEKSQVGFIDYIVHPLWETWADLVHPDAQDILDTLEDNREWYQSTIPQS
Description: in vitro enzyme assay, catalytic fragment of PDE4D2 (residues 86-413). In kind it is biochemical.

For assay [2], the target named is T2, PDE4A1 (Mus musculus, UniProt O89084).
T2 construct: targets used in the assays are full-length proteins (as opposed to simply the catalytic domain); expressed in transfected cells; host or cells: Schizosaccharomyces pombe, PDE gene integrated in place of cgs2
T2 sequence (O89084 1-610 isoform O89084-2): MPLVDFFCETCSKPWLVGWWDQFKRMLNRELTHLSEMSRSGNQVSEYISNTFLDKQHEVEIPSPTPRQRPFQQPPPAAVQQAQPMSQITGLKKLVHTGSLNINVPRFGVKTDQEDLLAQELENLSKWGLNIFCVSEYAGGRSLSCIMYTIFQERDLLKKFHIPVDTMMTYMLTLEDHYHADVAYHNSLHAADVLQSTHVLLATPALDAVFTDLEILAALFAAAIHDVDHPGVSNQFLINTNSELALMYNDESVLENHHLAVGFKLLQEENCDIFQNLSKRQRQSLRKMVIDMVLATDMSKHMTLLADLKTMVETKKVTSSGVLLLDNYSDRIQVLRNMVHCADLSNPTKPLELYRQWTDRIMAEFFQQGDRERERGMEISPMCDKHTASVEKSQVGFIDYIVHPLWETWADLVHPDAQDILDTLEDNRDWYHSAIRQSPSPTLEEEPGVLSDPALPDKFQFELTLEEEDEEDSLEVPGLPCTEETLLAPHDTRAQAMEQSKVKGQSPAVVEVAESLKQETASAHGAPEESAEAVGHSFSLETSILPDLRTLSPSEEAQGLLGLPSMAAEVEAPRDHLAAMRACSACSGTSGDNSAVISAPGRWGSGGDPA
Description: cAMP response in yeast strain expressing PDE4A1. In kind it is cell-based, Murine. The source says: Values represent the average and SD of two or three independent experiments. […] The strains used are as in FIG. 5A, together with strain CHP1141 (PDE8A). Values represent the average and SD of two or three independent experiments.
Thus, PDE inhibition can be indirectly quantitated by measuring the effect of a compound on cAMP levels in target yeast strains.

The target of another assay is PDE4A (Homo sapiens, UniProt P27815). Description: in vitro enzyme assay PDE4A (Table 7). The note with it: 2 micromolar compound; for remaining activity at 2 µM: read-out: percent of PDE activity present, PDE4A. In kind it is biochemical.
Sequence of PDE4A (P27815 whole entry, species assumed): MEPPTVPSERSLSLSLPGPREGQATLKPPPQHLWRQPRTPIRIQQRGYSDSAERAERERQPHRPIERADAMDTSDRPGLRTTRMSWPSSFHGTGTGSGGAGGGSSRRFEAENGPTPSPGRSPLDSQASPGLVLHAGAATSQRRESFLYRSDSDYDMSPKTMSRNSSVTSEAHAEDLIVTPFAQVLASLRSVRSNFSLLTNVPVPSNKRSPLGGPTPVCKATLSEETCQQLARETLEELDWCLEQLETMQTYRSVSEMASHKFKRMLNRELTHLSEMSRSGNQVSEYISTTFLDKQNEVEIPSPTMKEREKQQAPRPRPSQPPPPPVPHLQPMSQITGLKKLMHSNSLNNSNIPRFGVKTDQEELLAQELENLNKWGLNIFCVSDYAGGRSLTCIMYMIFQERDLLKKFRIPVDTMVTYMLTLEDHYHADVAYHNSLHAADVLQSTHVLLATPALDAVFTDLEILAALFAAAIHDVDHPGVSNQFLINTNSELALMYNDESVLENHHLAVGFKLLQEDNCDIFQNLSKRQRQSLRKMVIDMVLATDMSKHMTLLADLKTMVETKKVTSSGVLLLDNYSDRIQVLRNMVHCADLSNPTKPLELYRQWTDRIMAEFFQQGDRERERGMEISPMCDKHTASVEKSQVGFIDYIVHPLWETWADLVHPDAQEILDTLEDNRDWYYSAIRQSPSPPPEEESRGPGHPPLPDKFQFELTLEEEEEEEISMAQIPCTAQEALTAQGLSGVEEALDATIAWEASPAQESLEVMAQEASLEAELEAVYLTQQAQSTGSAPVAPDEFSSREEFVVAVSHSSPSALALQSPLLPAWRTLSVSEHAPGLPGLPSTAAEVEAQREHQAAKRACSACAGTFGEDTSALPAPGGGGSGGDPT
For a further assay, the target named is PDE4D (Homo sapiens, UniProt Q08499). Description: in vitro enzyme assay PDE4D (Table 7). In kind it is biochemical. The note with it: 2 micromolar compound; for remaining activity at 2 µM: read-out: percent of PDE activity present, PDE4D.
Sequence of PDE4D (Q08499 whole entry): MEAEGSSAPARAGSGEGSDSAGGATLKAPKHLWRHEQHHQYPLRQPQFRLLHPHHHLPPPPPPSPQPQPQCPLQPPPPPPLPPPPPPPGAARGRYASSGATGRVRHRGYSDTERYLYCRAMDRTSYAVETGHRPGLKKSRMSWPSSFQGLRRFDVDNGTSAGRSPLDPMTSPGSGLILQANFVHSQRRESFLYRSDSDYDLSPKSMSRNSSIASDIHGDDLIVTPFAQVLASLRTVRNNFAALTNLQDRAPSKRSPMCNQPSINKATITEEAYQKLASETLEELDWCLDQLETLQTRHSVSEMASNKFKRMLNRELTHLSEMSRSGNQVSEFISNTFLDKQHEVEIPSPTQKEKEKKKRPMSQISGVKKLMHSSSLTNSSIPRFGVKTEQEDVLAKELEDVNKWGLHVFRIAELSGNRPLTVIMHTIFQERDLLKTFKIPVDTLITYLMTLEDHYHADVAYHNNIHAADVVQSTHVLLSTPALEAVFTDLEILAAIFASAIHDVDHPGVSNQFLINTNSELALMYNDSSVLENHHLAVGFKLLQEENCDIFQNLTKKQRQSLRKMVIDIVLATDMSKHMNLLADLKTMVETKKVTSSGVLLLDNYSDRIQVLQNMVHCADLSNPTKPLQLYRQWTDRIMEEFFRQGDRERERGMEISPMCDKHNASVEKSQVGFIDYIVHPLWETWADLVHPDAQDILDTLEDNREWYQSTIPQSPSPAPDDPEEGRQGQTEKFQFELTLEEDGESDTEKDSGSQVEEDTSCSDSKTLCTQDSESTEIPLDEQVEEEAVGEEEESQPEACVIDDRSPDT
The target in the next assay is PDE4B (Homo sapiens, UniProt Q07343). Description: in vitro enzyme assay PDE4B (Table 7). In kind it is biochemical. The note with it: 2 micromolar compound; for remaining activity at 2 µM: read-out: percent of PDE activity present, PDE4B.
Sequence of PDE4B (Q07343 whole entry, species assumed): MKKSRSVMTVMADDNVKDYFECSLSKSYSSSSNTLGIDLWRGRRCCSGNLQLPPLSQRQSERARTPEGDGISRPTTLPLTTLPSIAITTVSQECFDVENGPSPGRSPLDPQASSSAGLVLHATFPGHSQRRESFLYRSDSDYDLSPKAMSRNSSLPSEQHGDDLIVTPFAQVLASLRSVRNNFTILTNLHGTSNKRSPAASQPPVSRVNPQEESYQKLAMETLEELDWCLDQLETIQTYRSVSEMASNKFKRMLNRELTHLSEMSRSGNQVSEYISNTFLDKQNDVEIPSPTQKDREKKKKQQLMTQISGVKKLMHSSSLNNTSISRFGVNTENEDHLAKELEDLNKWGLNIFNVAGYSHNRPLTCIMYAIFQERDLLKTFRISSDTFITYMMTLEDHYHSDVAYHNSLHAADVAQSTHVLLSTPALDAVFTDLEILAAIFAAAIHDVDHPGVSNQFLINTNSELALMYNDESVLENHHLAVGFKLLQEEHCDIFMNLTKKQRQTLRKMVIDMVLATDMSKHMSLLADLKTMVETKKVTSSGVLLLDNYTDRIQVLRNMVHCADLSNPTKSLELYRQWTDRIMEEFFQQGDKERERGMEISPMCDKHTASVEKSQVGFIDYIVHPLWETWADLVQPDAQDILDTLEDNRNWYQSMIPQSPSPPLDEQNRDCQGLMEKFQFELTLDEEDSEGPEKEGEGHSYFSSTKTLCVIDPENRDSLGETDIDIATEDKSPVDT
A further assay addresses PDE7A (Homo sapiens, UniProt Q13946). In words: in vitro enzyme assay PDE7A. In kind it is biochemical. Conditions: 2 micromolar compound; for remaining activity at 2 µM: read-out: percent of PDE activity present, PDE7A. Further details: made in house; host or cells: E. coli.
Assay [3] concerns the target T2, PDE4A1. In words: 5FOA growth assay (high throughput screen, ED50) in fission yeast strain expressing PDE4A1. In kind it is cell-based. The note with it: high throughput 5FOA growth screen; greater than 8.53 = statistically-significant inhibitor. Put shortly: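 Readout is OD600 after 48 h at 30° C in 5FOA medium, starting from 0.5–4×10^5 cells/ml; 5 mM cAMP served as positive control. Yeast expressing mouse PDE4A1 or PDE4B3 with an fbp1-ura4 reporter was first grown to exponential phase in EMM plus 0.5–2.5 mM cAMP. Hits were scored by composite Z scores.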

The next assay addresses T3, PDE8A (Mus musculus, UniProt O88502).
T3 construct: targets used in the assays are full-length proteins (as opposed to simply the catalytic domain); expressed in transfected cells; host or cells: Schizosaccharomyces pombe, PDE gene integrated in place of cgs2 (strains CHP1141, DDP13)
T3 sequence (O88502 1-823): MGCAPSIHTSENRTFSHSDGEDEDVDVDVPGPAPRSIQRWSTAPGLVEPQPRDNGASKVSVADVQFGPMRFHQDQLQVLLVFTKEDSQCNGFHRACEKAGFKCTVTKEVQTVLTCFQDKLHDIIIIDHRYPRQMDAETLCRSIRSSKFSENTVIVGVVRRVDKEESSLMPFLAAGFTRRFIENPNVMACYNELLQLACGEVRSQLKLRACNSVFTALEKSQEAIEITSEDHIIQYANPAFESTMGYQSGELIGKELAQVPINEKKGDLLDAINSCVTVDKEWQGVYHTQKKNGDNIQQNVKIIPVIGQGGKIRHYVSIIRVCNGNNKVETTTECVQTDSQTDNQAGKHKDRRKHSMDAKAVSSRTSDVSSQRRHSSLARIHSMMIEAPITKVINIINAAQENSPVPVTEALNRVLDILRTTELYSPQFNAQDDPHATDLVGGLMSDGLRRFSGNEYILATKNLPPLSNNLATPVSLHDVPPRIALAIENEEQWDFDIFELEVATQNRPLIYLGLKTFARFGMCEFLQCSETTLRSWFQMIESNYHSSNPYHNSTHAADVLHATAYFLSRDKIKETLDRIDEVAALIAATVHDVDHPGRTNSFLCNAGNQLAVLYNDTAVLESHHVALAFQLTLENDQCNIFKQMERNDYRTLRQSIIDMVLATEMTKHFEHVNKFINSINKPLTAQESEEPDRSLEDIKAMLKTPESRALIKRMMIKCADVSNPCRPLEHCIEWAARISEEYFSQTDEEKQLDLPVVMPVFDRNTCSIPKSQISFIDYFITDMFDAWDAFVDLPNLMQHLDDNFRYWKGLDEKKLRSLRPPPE
In words: fbp1-lacZ β-galactosidase reporter assay, PDE8A strain. In kind it is cell-based, murine. As for the experimental part:
β-galactosidase assays and characterization of 5FOA-sensitivity were carried out as previously described^10. cAMP assays were performed on exponential phase cells grown in EMM complete medium (3% glucose), using the Assay Designs cAMP EIA kit, according to manufacturer's instructions (Assay Designs, Ann arbor, Mich.).
The effect of known PDE inhibitors on the expression of the fbp1-lacZ fusion in murine PDE-expressing strains was tested. […] For Table 4 β-galactosidase activity was determined from 3 to 4 independent exponential phase cultures. The average±SD represents specific activity per milligram of soluble protein.
(In general: In a reporter assay the amount or activity of a reporter protein is the signal.)

The test system of assay [4] is PDE2A, PDE4A, PDE4B, Cgs2. Description: Parallel high throughput 5FOA growth screens of bioactive libraries. In kind it is cell-based, murine PDEs; yeast Cgs2. The note with it: 3,120 bioactive compounds, average 20 μM. As for the experimental part: High throughput drug screens were carried out at the Broad Institute's Chemical Biology Program screening facility (Broad Institute, Cambridge, Mass.). Depending upon the strain, cultures were pregrown to exponential phase in EMM complete medium containing from 0.5 to 2.5 mM cAMP to repress fbp1-ura4 transcription. […] Starting cell concentrations ranged from 0.5×10^5 to 4×10^5 cells/ml depending on the screening strain. […] Other positive control dishes contained 5 mM cAMP in the 5FOA medium. Cultures were grown for 48 hours at 30° C., sealed in an airtight container with moist paper towels to prevent evaporation. Optical densities (OD600) of cultures were measured using a microplate reader. Bioinformatic analysis of the results to determine composite Z scores was performed as previously described^30, 31.

Sequence of PDE7A (Q13946 whole entry): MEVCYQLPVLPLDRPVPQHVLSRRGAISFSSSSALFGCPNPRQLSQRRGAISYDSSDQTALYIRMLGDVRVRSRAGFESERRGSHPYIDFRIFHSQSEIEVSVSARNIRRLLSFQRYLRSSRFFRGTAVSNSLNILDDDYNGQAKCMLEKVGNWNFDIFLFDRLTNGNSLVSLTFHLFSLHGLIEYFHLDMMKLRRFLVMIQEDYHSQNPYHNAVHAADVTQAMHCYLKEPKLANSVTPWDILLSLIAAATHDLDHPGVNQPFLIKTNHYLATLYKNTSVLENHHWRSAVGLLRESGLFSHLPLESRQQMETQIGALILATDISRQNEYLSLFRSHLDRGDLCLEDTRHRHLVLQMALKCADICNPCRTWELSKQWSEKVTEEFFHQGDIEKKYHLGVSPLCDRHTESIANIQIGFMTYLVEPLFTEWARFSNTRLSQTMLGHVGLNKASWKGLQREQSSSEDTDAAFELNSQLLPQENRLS

As for `COc1ccc2c(c1)C1(C)CCC(=O)CC1CC2` (single isomer, unassigned) [Compound 39], the “PDE inhibitor profile (Table 18)” value in assay [1] was 39 (1).

With `N#Cc1sc2sc(C#N)c(-c3ccco3)c2c1N` [BC30], the “PDE4D catalytic domain, 2 uM cpm” value at PDE4D2-CAT (2 uM compound) is recorded as 2583 cpm. In addition, the “In vitro activation of PDE4D catalytic domain, % activity” value at PDE4D2-CAT (2 micromolar compound, DMSO = 100) was found to be 139%.

Turning to `Cc1cc(C)nc(SCCS(=O)(=O)c2ccc(C(C)(C)C)cc2)n1` [Compound 26], the “cAMP Response (% rolipram), 4A1” value at PDE4A1 [2] came out at 96.00 % rolipram.

In the case of `Cc1c(C(=O)Nc2ccc(F)cc2F)sc2ncnc(N3CCN(C)CC3)c12` [Compound 58-1], the remaining activity at 2 µM on PDE4A worked out at 84%; on PDE4D it was 90%; on PDE4B it was 64%; at PDE7A it was 98%.

In the case of `Cc1nc(N2CCOCC2)c2c(C)c(C(=O)Nc3ccc(F)cc3F)sc2n1` [Compound 58-2], the remaining activity at 2 µM on PDE4A stood at 26%; at PDE4D it was 30%; at PDE4B it was 39%; at PDE7A, 88%.

With `COc1cc(NC(=O)c2sc3ncnc(N4CCCCC4C)c3c2C)cc(OC)c1OC` (stereo not drawn) [Compound 58-3], the remaining activity at 2 µM worked out at 14% on PDE4A, 30% at PDE4D, 15% on PDE4B and 20% on PDE7A. Besides, the “Composite Z score, PDE4A1” value on PDE4A1 [3] amounted to 27.41.

In the case of `Cc1nc(N2CCCCC2C)c2c(C)c(C(=O)Nc3ccc(F)cc3F)sc2n1` (stereo not drawn) [Compound 58-4], the remaining activity at 2 µM at PDE4A was found to be 26%; at PDE4D it was 54%; on PDE4B, 47%; at PDE7A, 74%.

Turning to `Cc1nc(N2CCC(C)CC2)c2c(C)c(C(=O)Nc3c(F)cc(F)cc3Br)sc2n1` [Compound 58-5], the remaining activity at 2 µM at PDE4A was 69%; on PDE4D, 68%; on PDE4B, 46%; on PDE7A, 90%.

Turning to `CCN(CC)c1nc(C)nc2sc(C(=O)Nc3ccc(F)cc3F)c(C)c12` [Compound 58-6], the values for the remaining activity at 2 µM at PDE4A, at PDE4D and at PDE4B were 73%, 68% and 61%, respectively. In addition, at PDE7A, the “percent of PDE activity present, PDE7A” value is 75%.

Regarding `CCN(CC)c1nc(C)nc2sc(C(=O)Nc3ccc(F)cc3F)c(C)c12` [Compound 58-8], the “percent of PDE activity present, PDE4A” value on PDE4A came out at 84%. The “percent of PDE activity present, PDE4D” value on PDE4D worked out at 76%. In addition, the “percent of PDE activity present, PDE4B” value on PDE4B came out at 56%. Further, on PDE7A, the “percent of PDE activity present, PDE7A” value worked out at 48%.

For `Cc1c(C(=O)Nc2ccc3c(c2)OCCO3)sc2ncnc(N3CCc4ccccc4C3)c12` [Compound 58-10], the remaining activity at 2 µM at PDE4A is 60%; at PDE4D it was 70%; on PDE4B, 39%; at PDE7A, 84%. Also, the “Composite Z score, PDE4A1” value at PDE4A1 [3] came to 32.338.

With `OCCN(CCO)c1nc(N2CCCCC2)c2nc(N(CCO)CCO)nc(N3CCCCC3)c2n1` [dipyridamole, Dipyridamole], the “inhibition of PDE8A in yeast, in words” value on PDE8A is reported as “not able to be inhibited”.

In the case of `COc1c2occc2c(OC)c2c(=O)cc(C)oc12` [khellin], in assay [4], the “hit in high throughput screens (promotes 5FOA^R growth), in words” value (“hit in high throughput screens” below) is listed as “identified”.

For the compound `Cc1cc2cc3c(C)cc(=O)oc3c(C)c2o1` [trioxsalen], the “hit in high throughput screens” value in assay [4] is on record as “identified”.

With `COc1c2ccoc2cc2oc(C)cc(=O)c12` [visnagin], in assay [4], the “hit in high throughput screens” value is on record as “identified”.
